Results from ChEMBL document CHEMBL1201862, “PubChem BioAssay data set” (2004).
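Tested at 5 concentrations; 48 h exposure; 96-well plates; endpoints linearly interpolated, else capped at highest concentration. GI50 is the concentration that inhibits growth by half.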 Calls of active or inactive are those of the source. Cut-off read from the data, not from the text of the source: active = GI50 up to about 1.1 µM and inactive = higher.

Tests used:
Experiment in all cases: NCI anticancer screen, dose series, 48 h
[1] = tested on: A549
[2] = tested on: NCI-H460
[3] = tested on: LOX IMVI
[4] = tested on: SR
[5] = tested on: BT-549
[6] = tested on: M14
[7] = tested on: RXF 393
[8] = tested on: SF-539
[9] = tested on: SF-295
[10] = tested on: EKVX
[11] = tested on: IGROV-1
[12] = tested on: SW-620
[13] = tested on: A498
[14] = tested on: SN12C
[15] = tested on: MOLT-4
[16] = tested on: MDA-N
[17] = tested on: ACHN
[18] = tested on: SK-OV-3
[19] = tested on: UO-31
[20] = tested on: HCT-116
[21] = tested on: NCI/ADR-RES
[22] = tested on: OVCAR-8
[23] = tested on: HL-60
[24] = tested on: TK-10
[25] = tested on: HOP-62
[26] = tested on: HCC 2998
[27] = tested on: RPMI-8226
[28] = tested on: SNB-19
[29] = tested on: SK-MEL-5
[30] = tested on: CAKI-1
[31] = tested on: T47D
[32] = tested on: MDA-MB-435
[33] = tested on: SNB-75
[34] = tested on: HCT-15
[35] = tested on: K562
[36] = tested on: KM12
[37] = tested on: HOP-92
[38] = tested on: Malme-3M
[39] = tested on: MDA-MB-231
[40] = tested on: SK-MEL-2
[41] = tested on: HT-29
[42] = tested on: Hs-578T
[43] = tested on: OVCAR-5
[44] = tested on: SF-268
[45] = tested on: UACC-62
[46] = tested on: OVCAR-4
[47] = tested on: NCI-H226
[48] = tested on: MCF7
[49] = tested on: OVCAR-3
[50] = tested on: PC-3
[51] = tested on: 786-0
[52] = tested on: COLO 205
[53] = tested on: CCRF-CEM
[54] = tested on: U-251
[55] = tested on: NCI-H522
[56] = tested on: NCI-H23
[57] = tested on: UACC-257
[58] = tested on: SK-MEL-28
[59] = tested on: DU-145

Measured: GI50

O=C1NC(c2ccccc2Cl)Nc2ccccc21 (centres undefined)
inactive: [1] 32.5 µM | [2] 13.9 µM | [3] 12.5 µM | [4] 4.07 µM | [5] 28.4 µM | [6] 10.5 µM | [7] 15.3 µM | [8] 7.08 µM | [9] 13.9 µM | [10] 27.7 µM | [11] 22.5 µM | [12] 3.09 µM | [13] 30.8 µM | [14] 23.3 µM | [15] 8.77 µM | [16] 1.47 µM | [17] 29.5 µM | [18] 31 µM | [19] 30.7 µM | [20] 7.24 µM | [21] 5.61 µM | [22] 38.6 µM | [23] 2.91 µM | [24] > 53.1 µM | [25] 35.4 µM | [26] 11.3 µM | [27] 7.73 µM | [28] 15.1 µM | [29] 5.57 µM | [30] 5.71 µM | [31] 48.5 µM | [32] 1.65 µM | [33] 13.8 µM | [35] 3.77 µM | [36] 3.76 µM | [37] 44.4 µM | [38] 12.3 µM | [39] 33.2 µM | [40] 6.7 µM | [41] 6.67 µM | [42] 9.53 µM | [43] > 100 µM | [44] 59.7 µM | [45] 7.14 µM | [46] 27.5 µM | [47] 41.8 µM | [48] > 65.3 µM | [49] 7.38 µM | [50] 21.4 µM | [51] 28.4 µM | [52] 8.49 µM | [53] 11.4 µM | [54] 10.4 µM | [55] 12.3 µM | [56] 34.2 µM | [57] > 100 µM | [58] 24.1 µM | [59] 30.8 µM
3.9 µM: [34]
